Numbers after ± are expanded uncertainties.
Details: 101.33 kPa, Liquid, Vibrating tube method

| mass density (288.15 K) | mass density (293.15 K) | mass density (298.15 K) | mass density (303.15 K) | mass density (308.15 K) | mass density (313.15 K) | Compound |
| --- | --- | --- | --- | --- | --- | --- |
| 1259.99 ± 0.45 kg/m3 | 1252.77 ± 0.44 kg/m3 | 1245.49 ± 0.44 kg/m3 | 1238.18 ± 0.43 kg/m3 | 1230.84 ± 0.42 kg/m3 | 1223.46 ± 0.42 kg/m3 | ClCCCl [1,2-dichloroethane] |
| 819.786 ± 0.65 kg/m3 | 815.497 ± 0.64 kg/m3 | 811.198 ± 0.64 kg/m3 | 806.887 ± 0.63 kg/m3 | 802.562 ± 0.63 kg/m3 | 798.222 ± 0.63 kg/m3 | CCCCCC(C)=O [2-heptanone] |
| 951.178 ± 0.23 kg/m3 | 946.713 ± 0.23 kg/m3 | 942.243 ± 0.23 kg/m3 | 937.767 ± 0.23 kg/m3 | 933.285 ± 0.23 kg/m3 | 928.795 ± 0.23 kg/m3 | O=C1CCCCC1 [cyclohexanone] |

| Compound | mass density (288.15 K) | mass density (293.15 K) | mass density (298.15 K) | mass density (303.15 K) | mass density (308.15 K) | mass density (313.15 K) |
| --- | --- | --- | --- | --- | --- | --- |
| ClC(Cl)C(Cl)Cl [1,1,2,2-tetrachloroethane] | 1601.45 ± 2.3 kg/m3 | 1593.65 ± 2.3 kg/m3 | 1585.87 ± 2.3 kg/m3 | 1578.07 ± 2.3 kg/m3 | 1570.27 ± 2.2 kg/m3 | 1562.45 ± 2.2 kg/m3 |
| CCC(C)=O [butanone] | 810.262 ± 0.24 kg/m3 | 805.058 ± 0.24 kg/m3 | 799.828 ± 0.24 kg/m3 | 794.565 ± 0.24 kg/m3 | 789.273 ± 0.24 kg/m3 | 783.946 ± 0.24 kg/m3 |

Source: the NIST ThermoML archive (doi:10.1016/j.tca.2013.03.031)
